Holding throughout (assay type): cell-based
Data set [1] deals with Human T-cell leukemia (Jurkat) cells. Briefly: Number of living cells counted by flow cytometry (FACSort) after D1R agonist. As to conditions: 10^−3M-10^−6M, 3 days. As for the experimental part:
Afterwards, the microtiter plates were placed in an incubator (37° C., humidified incubator, 5% CO2) for 3 days. Then, the number of living cells was evaluated by flow cytometry (the cells were counted by FACsort for a fixed time length of 1 min, in which 100 microliter of each sample was tested). Of note, A 77636 hydrochloride is an orally-active D1R agonist, according to the manufacturer (Tocris).
(§1) Afterwards, the microtiter plates were placed in an incubator (37° C., humidified incubator, 5% CO2) for 3 days. Then, the number of living cells was evaluated by flow cytometry (the cells were counted by FACsort for a fixed time length of 1 min, in which 100 microliter of each sample was tested).
(§2) The experiment was designed to test the effect of exposing the cells to the D1R agonist for 1 min, 15 min, 1 hr or 72 hr. Thus, 1 min, or 15 min or 1 hr after the addition of the D1R agonist, the corresponding cells were transferred into tubes, centrifuged (1000 rpm for 10 min); and the supernatant was removed. […] Thus, its medium was not replaced, and these cells and remained as such in the incubator for 72 hr. At the end of the 72 hr incubation, the number of living cells was evaluated by flow cytometry (the cells were counted by FACsort for a fixed time length of 1 min, in which 100 microliter of each sample was tested).
(§3) Cell viability was tested afterwards.
(§4) For this purpose, the Jurkat T-cell leukemia line, the HuT-78 human T-lymphoma (cutaneous “Sezary” T-lymphoma) line, and the K-562 human Chronic-Myeloid Leukemia (CML) and Daudi Human B-lymphoma (Burkitt's lymphoma) lines were seeded in tissue culture wells (0.5 million cells/0.5 ml/well).
(§5) Cell survival/death was evaluated 3 days later by counting the number of living cells, using flow cytometry.

Data set [2] has as its system Human cutaneous Sezary T-lymphoma cells (HuT-78). The description is as above. The settings on record: 10^−3M-10^−6M, 3 days. As for the experimental part:
(§6) Human cutaneous Sezary T-lymphoma cells (HUT-78) were seeded in 96 well plates (0.5 ml per well of 0.5 million cells/ml) and A 77636 hydrochloride was added and diluted 1:00 into the wells at starting concentrations of 10^−1M-10^−4M, so that the final concentration range tested was 10^−3M-10^−6M. Afterwards, the microtiter plates were placed in an incubator (37° C., humidified incubator, 5% CO2) for 3 days. Then, the number of living cells was evaluated by flow cytometry (the cells were counted by FACsort for a fixed time length of 1 min, in which 100 microliter of each sample was tested).
(§7) Human cutaneous Sezary T-lymphoma cells (HUT-78) were seeded in 96 well plates (0.5 ml per well of 0.5 million cells/ml) and A 68930 hydrochloride was added and diluted 1:00 into the wells at starting concentrations of 10^−1M-10^−4M, so that the final concentration range tested was 10^−3M-10^−6M. Afterwards, the microtiter plates were placed in an incubator (37° C., humidified incubator, 5% CO2) for 3 days. Then, the number of living cells was evaluated by flow cytometry (the cells were counted by FACsort for a fixed time length of 1 min, in which 100 microliter of each sample was tested).
(§8) Human cutaneous Sezary T-lymphoma cells (HUT-78) were seeded in 96 well plates (0.5 ml per well of 0.5 million cells/ml) and SKF 38393 hydrobromide was added and diluted 1:00 into the wells at starting concentrations of 10^−1M-10^−4M, so that the final concentration range tested was 10^−3M-10^−6M. Afterwards, the microtiter plates were placed in an incubator (37° C., humidified incubator, 5% CO2) for 3 days. Then, the number of living cells was evaluated by flow cytometry (the cells were counted by FACsort for a fixed time length of 1 min, in which 100 microliter of each sample was tested).
Cell viability was tested afterwards. […]
as §5

Data set [3] deals with Human chronic myelogenous leukemia cells (CML) (K-562). Described as above. As to conditions: for No. of Cells: 1 × 10^−4M; for No. of Cells / Killing, in words (Table 6): 1 hour; for Killing, in words (Table 6): 10^−4 M. The method, then: as §6, with “chronic myelogenous leukemia” for “cutaneous Sezary T-lymphoma”, “(CML) (K-562)” for “(HUT-78)”
as §7, with “chronic myelogenous leukemia” for “cutaneous Sezary T-lymphoma”, “(CML) (K-562)” for “(HUT-78)”
as §8, with “chronic myelogenous leukemia” for “cutaneous Sezary T-lymphoma”, “(CML) (K-562)” for “(HUT-78)”
as §2, with “Human chronic myelogenous leukemia cells (CML) (K-562) were seeded in 96 well plates (0.5 ml per well of 0.5 million cells/ml) and A 77636 hydrochloride was added and diluted 1:00 into the wells, at a fixed starting concentration of 10^−2M, so that the final concentration tested was 10^−4M. The” for “The”, “min),” for “min);”
as §3, §4, §5
(§9) The effect of dopamine itself (that can of course activate all its D1R-5 receptors) was also tested. All of these molecules were tested at a similar concentration (10^−4 M). […] The specificity and restriction of the effect to the D1R is also seen in Tables 7 and 8.

The subject of data set [4] is Human Burkitt's B-lymphoma cells (Daudi). Described as above. As to conditions: for No. of Cells: 1 × 10^−4M; for No. of Cells / Killing, in words (Table 5): 1 hour; for Killing, in words (Table 5): 10^−4 M. As for the experimental part: Human Burkitt's B-lymphoma cells (Daudi) were seeded in 96 well plates (0.5 ml per well of 0.5 million cells/ml) and A 77636 hydrochloride was added and diluted 1:00 into the wells at starting concentrations of 10^−1M-10^−4M, so that the final concentration range tested was 10^−3M-10^−6M. […] Then, the number of living cells was evaluated by flow cytometry (the cells were counted by FACsort for a fixed time length of 1 min, in which 100 microliter of each sample was tested).
Human Burkitt's B-lymphoma cells (Daudi) were seeded in 96 well plates (0.5 ml per well of 0.5 million cells/ml) and A 68930 hydrochloride was added and diluted 1:00 into the wells at starting concentrations of 10^−1M-10^−4M, so that the final concentration range tested was 10^−3M-10^−6M. […] Then, the number of living cells was evaluated by flow cytometry (the cells were counted by FACsort for a fixed time length of 1 min, in which 100 microliter of each sample was tested).
[…] Then, the number of living cells was evaluated by flow cytometry (the cells were counted by FACsort for a fixed time length of 1 min, in which 100 microliter of each sample was tested).
as §3, §9

The subject of data set [5] is Human Burkitt's B-cell lymphoma (Raji) cells. Described as above. As to conditions: 10^−3M-10^−6M, 3 days. The method, then: as §1, §3
Data set [6] deals with resting normal human T-cells. The data set is described as above. As to conditions: 10^−3M-10^−6M, 3 days. The method, then:
as §1
FIGS. 31A and B are graphs showing that A 77636 hydrochloride kills much more TCR-activated (FIG. 31B) than resting normal (FIG. 31A) human T-cells. […] The cells were then transferred to the incubator for 72 hr incubation. At the end of the 72 hr incubation, the number of living cells in each well was evaluated by flow cytometry (the cells were counted by FACsort for a fixed time length of 1 min, in which 100 microliter of each sample was tested).
as §3

The subject of data set [7] is Human Sezary T-Cell Lymphoma (HuT 78) Cells. As to the kind of experiment: Cell number, necrosis and apoptosis by Annexin V/PI flow cytometry. The settings on record: 1 × 10^−4M, exposed for 1 hr; for % Necrotic Cells: Annexin V+ PI+; for % Apoptotic Cells: Annexin V+ PI−. As for the experimental part: (§10) Measurement of cell death by flow cytometry and detection of phosphatidyl serine was performed using the IQ Products kit (R&D systems), according to the manufacturers instructions.
(§11) In detail: The Phosphatidyl Serine Detection kit provides a rapid and reliable method for the detection of apoptosis by flow cytometry. This method enables detection at the single-cell level, and also allows the distinction between apoptosis and necrosis.
(§12) During the early stages of apoptosis, phosphatidyl serine (PS) becomes exposed on the outside of the cell membrane. This early stage of apoptosis can be specifically detected by PS binding proteins (Annexin V).
(§13) During the early stages of apoptosis, the cell membrane is intact and the cells exclude propidium iodide (PI). Later, during the apoptosis process, the membrane becomes porous and PI becomes associated with DNA. The uptake of PI is an indication of necrosis.
as §9
(§14) Cancer death induced by selective D1R agonists occurs via necrosis. To study the mechanism by which the cancer cells die, due to their incubation with DR1 agonists, the phosphatidyl serine detection kit was used. This kit provides a rapid and reliable method for the detection of apoptosis by flow cytometry, enables detection at the single-cell level, and also allows the distinction between apoptosis and necrosis.
(§15) During the early stages of apoptosis, phosphatidyl serine (PS) becomes exposed on the outside of the cell membrane. This early stage of apoptosis can be specifically detected by PS binding proteins (Annexin V). During the early stages of apoptosis, the cell membrane is intact and the cells exclude propidium iodide (PI). Later, during the apoptosis process, the membrane becomes porous and PI becomes associated with DNA. The uptake of PI is an indication of necrosis. Thus, Annexin V^+ PI^− are considered cells that are undergoing apoptosis, while Annexin V^+ PI^+ are considered cells that are undergoing necrosis. Live cells are Annexin V^− PI^−.

In data set [8] the test system is Human T-Cell Leukemia (Jurat) Cells. Described as above. The settings on record: 1 × 10^−4M, exposed for 1 hr; for % Necrotic Cells: Annexin V+ PI+; for % Apoptotic Cells: Annexin V+ PI−. The method, then: as §10, §11, §12, §13, §9, §14, §15

For the molecule `Cl.NC[C@@H]1O[C@H](c2ccccc2)Cc2c1ccc(O)c2O` (racemic) [A 68930 hydrochloride, cis-(±)-1-(aminomethyl)-3,4-dihydro-3-phenyl-1H-2-benzopyran-5,6-diol hydrochloride], in data set [1], the “Cell death by number of living cells (FIGS. 10-12), in words” value is “induces marked cell death”. Moreover, the “Cell death by number of living cells (FIGS. 13-15), in words” value in data set [2] is “induces marked cell death”. Also, the “Cell death by number of living cells (FIGS. 22-24), in words” value in data set [3] (10^−3M-10^−6M, 3 days) was “induces marked cell death”. The “Cell death by number of living cells (FIGS. 16-18), in words” value in data set [4] (10^−3M-10^−6M, 3 days) is “induces marked cell death”. Besides, in data set [5], the “Cell death by number of living cells (FIGS. 19-21), in words” value was “induces marked cell death”. In addition, the “Killing effect by number of living cells (FIGS. 25-27), in words” value in data set [6] is “significantly milder killing effect”.

For the molecule `CCCN1CCC[C@@H]2Cc3n[nH]cc3C[C@H]21` [D2R Agonist, Quinpirole], in data set [3], the “No. of Cells” value was 27,360 and the “Killing, in words (Table 6)” value was “no such effect”. In data set [4], the “No. of Cells” value was 20,805 and the “Killing, in words (Table 5)” value is “no such effect”. In data set [7], the “No. of Cells” value is 23,880, the “% Necrotic Cells” value worked out at 21.97% and the “% Apoptotic Cells” value is 12.00%. Moreover, in data set [8], the “No. of Cells” value is reported as 7,395, the “% Necrotic Cells” value turned out to be 7.65% and the “% Apoptotic Cells” value is 1.38%.

In the case of `CCCN(CCC)C1CCc2ccc(O)cc2C1` (stereo not drawn) [D3R Agonist, 7-Hydroxy-DPAT], in data set [3], the “No. of Cells” value is 21,960 and the “Killing, in words (Table 6)” value is given as “no such effect”. In data set [4], the “No. of Cells” value is given as 18,330 and the “Killing, in words (Table 5)” value is “no such effect”. Also, in data set [7], the “No. of Cells” value is 18,975, the “% Necrotic Cells” value came to 21.40% and the “% Apoptotic Cells” value came to 14.67%. In data set [8], the “No. of Cells” value is on record as 9,300, the “% Necrotic Cells” value was found to be 10.27% and the “% Apoptotic Cells” value stood at 1.68%.

For the molecule `NCCc1ccc(O)c(O)c1` [Dopamine], in data set [3], the “No. of Cells” value is reported as 24,480 and the “Killing, in words (Table 6)” value is reported as “not the CML”. Also, in data set [4], the “No. of Cells” value is given as 5,325 and the “Killing, in words (Table 5)” value is recorded as “killed the B-lymphoma cells”. In addition, in data set [7], the “No. of Cells” value is recorded as 16,395, the “% Necrotic Cells” value came out at 39.80% and the “% Apoptotic Cells” value amounted to 19.07%. In data set [8], the “No. of Cells” value is recorded as 4,545, the “% Necrotic Cells” value is 42.84% and the “% Apoptotic Cells” value worked out at 7.06%.

(Values after patent US20080311657A1, “Killing Human Lymphoma and Leukemia Cancer Cells and Tcr-Activated Normal Human Cells By Dopamine D1r Agonists” (priority 2005, published 2008).)
